The results in this text go back to patent US10258039B2, “Substituted pyrazolylpyrazole derivative and use of same as herbicide” (KYOYU AGRI CO., LTD., priority 2015, dated 2019).

Format in all cases: in vivo
Data set [1] concerns Chenopodium album. Nature of the data set: Farming soil treatment test. The following applies: soil surface spray prior to weed growth, 30 days, 30° C. As for the experimental part:
(§1) 2. Farming Soil Treatment Test
(§2) Field soil was filled into a 1/6000 are pot followed by seeding with Digitaria ciliaris, Chenopodium album and Amaranthus retroflexus and covering with soil.
(§3) Wettable powders of compounds of formula (I) shown in Table 1 prepared in compliance with the preparation examples were diluted with water to the prescribed amount of chemical and uniformly sprayed onto each soil surface layer using 100 liters of sprayed water per 10 are prior to weed growth following seeding.
(§4) After treating for 30 days in a glass greenhouse at an average atmospheric temperature of 30° C., the herbicidal efficacy thereof was investigated.
(§5) Evaluation of herbicidal efficacy was carried out in the same manner as the above-mentioned Test Example 1.

In data set [2] the test system is Amaranthus retroflexus. Nature of the data set: Farming soil treatment test. As to conditions: soil surface spray prior to weed growth, 30 days, 30° C. Here is the method:
as §1, §2, §3, §4, §5

Data set [3] relates to Digitaria ciliaris. Nature of the data set: Farming soil treatment test. The following applies: soil surface spray prior to weed growth, 30 days, 30° C. Here is the method: as §1, §2, §3, §4, §5
Data set [4] concerns Galinsoga parviflora. Nature of the data set: Weed foliar treatment test (Test 4, 4.0 to 5.0 leaf stage). As to conditions: 10g a.i./10a; foliar spray at 4.0 to 5.0 leaf stage of Digitaria ciliaris; 20 days, 25° C. Here is the method: (§6) 4. Weed Foliar Treatment Test
(§7) Field soil was filled into a 1/4500 are pot followed by seeding with Digitaria ciliaris and Galinsoga parviflora, covering with soil and cultivating in a glass greenhouse at an average atmospheric temperature of 25° C.
(§8) Wettable powders of Target Compound (I) shown in Table 1 prepared in compliance with the preparation examples were diluted with water to the prescribed amount of chemical and uniformly sprayed onto the weeds using 100 liters of sprayed water per 10 are when Digitaria ciliaris had grown to the 4.0 to 5.0 leaf stage (plant height: 10 cm to 15 cm).
(§9) After treating for 20 days in a glass greenhouse at an average atmospheric temperature of 25° C., the herbicidal efficacy thereof was investigated.
as §5

Data set [5] relates to Digitaria ciliaris. The data set is described as above. The following applies: 10g a.i./10a; foliar spray at 4.0 to 5.0 leaf stage of Digitaria ciliaris (plant height 10 cm to 15 cm); 20 days, 25° C. Here is the method:
as §6, §7, §8, §9, §5

Data set [6] concerns Chenopodium album. Description: Weed foliar treatment test (Test 3, 1.0 to 2.0 leaf stage). The following applies: foliar spray at 1.0 to 2.0 leaf stage of Digitaria ciliaris, 3 weeks, 25° C. As for the experimental part: (§10) 3. Weed Foliar Treatment Test
(§11) Soil was filled into a 1/6000 are pot followed by seeding with Digitaria ciliaris, Chenopodium album and Amaranthus retroflexus, covering with soil, and cultivating in a glass greenhouse at an average atmospheric temperature of 25° C.
(§12) Wettable powders of Target Compound (I) shown in Table 1 prepared in compliance with the preparation examples were diluted with water to the prescribed amount of chemical and uniformly sprayed onto the weeds using 150 liters of sprayed water per 10 are when Digitaria ciliaris had grown to the 1.0 to 2.0 leaf stage.
(§13) After treating for 3 weeks in a glass greenhouse at an average atmospheric temperature of 25° C., the herbicidal efficacy thereof was investigated.
as §5

Data set [7] relates to Amaranthus retroflexus. Described as above. As to conditions: foliar spray at 1.0 to 2.0 leaf stage of Digitaria ciliaris, 3 weeks, 25° C. Here is the method:
as §10, §11, §12, §13, §5

Data set [8] relates to Digitaria ciliaris. The data set is described as above. As to conditions: foliar spray at 1.0 to 2.0 leaf stage of Digitaria ciliaris, 3 weeks, 25° C. As for the experimental part:
as §10, §11, §12, §13, §5

Data set [9] deals with Echinochloa crus-galli. Description: Paddy herbicidal activity test. The following applies: irrigated paddy pot, treated at 3.5 leaf stage of Echinochloa crus-galli, 30 days, 30° C. As for the experimental part: (§14) 1. Paddy Herbicidal Activity Test
(§15) Rice paddy soil was filled into a 1/10000 are pot followed by the addition of suitable amounts of water and chemical fertilizer, kneading, seeding with Echinochloa crus-galli, Monochoria vaginalis and Scirpus juncoides and maintaining in an irrigated state at a water depth of 3 cm.
(§16) Wettable powders of Target Compound (I) shown in. Table 1 prepared in compliance with the preparation examples were diluted with a suitable amount of water, rice plants in the 2.0 leaf stage were transplanted during 3.5 leaf stage of Echinochloa crus-galli, and treated by dropping in chemical in the prescribed amount per 10 are using a pipette.
as §4
(§17) Evaluation of herbicidal efficacy was carried out by comparing growth inhibition rate (%) with an untreated group, while evaluation of phytotoxicity was carried out by comparing growth inhibition rate (%) with the state of a complete eradication group, and were evaluated at 11 levels indicated below.

For data set [10], the system named is Monochoria vaginalis. Description: Paddy herbicidal activity test. As to conditions: irrigated paddy pot, 30 days, 30° C. As for the experimental part: as §14, §15, §16, §4, §17
Data set [11] deals with Scirpus juncoides. Description: Paddy herbicidal activity test. The following applies: irrigated paddy pot, 30 days, 30° C. As for the experimental part: as §14, §15, §16, §4, §17
Data set [12] concerns Oryza sativa. Nature of the data set: Paddy herbicidal activity test, phytotoxicity to transplanted rice. As to conditions: rice transplanted at 2.0 leaf stage, 30 days, 30° C. Here is the method:
as §14, §15, §16, §4, §17

On to `O=C(CC1CC1)Nc1c([N+](=O)[O-])cnn1-c1nn2c(c1Cl)CCCC2` [Compound 8], for which the “herbicidal efficacy, Chenopodium album” value in data set [1] (5g a.i./10a), in data set [1] (10g a.i./10a), in data set [6] (5g a.i./10a) and in [6] (10g a.i./10a) was 10 (10: 100%) each time. Also, the “herbicidal efficacy, Amaranthus retroflexus” value in data set [2] (5g a.i./10a), in data set [2] (10g a.i./10a), in [7] (5g a.i./10a) and in [7] (10g a.i./10a) was 10 (10: 100%) in each case. The “herbicidal efficacy, Digitaria ciliaris” value in [3] (5g a.i./10a) is given as 9 (9: 90% to less than 100%); in data set [3] (10g a.i./10a) it was 10 (10: 100%); in data set [5], 9 (9: 90% to less than 100%); in data set [8] (5g a.i./10a), 9 (9: 90% to less than 100%); in data set [8] (10g a.i./10a) it was 10 (10: 100%). Moreover, the “herbicidal efficacy, Galinsoga parviflora” value in data set [4] is on record as 10 (10: 100%). Moreover, the “herbicidal efficacy, Echinochloa crus-galli” value in data set [9] (1g a.i./10a) is recorded as 9 (9: 90% to less than 100%); in data set [9] (5g a.i./10a), 10 (10: 100%). In addition, the “herbicidal efficacy, Monochoria vaginalis” value in [10] (1g a.i./10a) and in data set [10] (5g a.i./10a) was 10 (10: 100%) throughout. Further, the “herbicidal efficacy, Scirpus juncoides” value in data set [11] (1g a.i./10a) is reported as 9 (9: 90% to less than 100%); in data set [11] (5g a.i./10a), 10 (10: 100%). In addition, the “phytotoxicity, Oryza sativa” value in [12] (1g a.i./10a) and in data set [12] (5g a.i./10a) was 0 (0 (exponent): 0% to less than 10% (growth inhibition rate)) throughout.
As for `O=C(Nc1c([N+](=O)[O-])cnn1-c1nn2c(c1Cl)CCCC2)C1CCCC1` [Compound 6], the “herbicidal efficacy, Chenopodium album” value is 9 (9: 90% to less than 100%) in data set [1] (5g a.i./10a), 9 (9: 90% to less than 100%) in data set [1] (10g a.i./10a), 10 (10: 100%) in data set [6] (5g a.i./10a) and 10 (10: 100%) in data set [6] (10g a.i./10a). For the same molecule, the “herbicidal efficacy, Amaranthus retroflexus” value in data set [2] (5g a.i./10a), in data set [2] (10g a.i./10a), in [7] (5g a.i./10a) and in data set [7] (10g a.i./10a) was 10 (10: 100%) each time. In addition, the “herbicidal efficacy, Digitaria ciliaris” value in data set [3] (5g a.i./10a) is recorded as 9 (9: 90% to less than 100%); in [3] (10g a.i./10a), 9 (9: 90% to less than 100%); in data set [5], 9 (9: 90% to less than 100%); in [8] (5g a.i./10a) it was 10 (10: 100%); in data set [8] (10g a.i./10a), 10 (10: 100%). The “herbicidal efficacy, Galinsoga parviflora” value in [4] is recorded as 10 (10: 100%). Further, the “herbicidal efficacy, Echinochloa crus-galli” value in data set [9] (1g a.i./10a) and in [9] (5g a.i./10a) was 10 (10: 100%) each time. The “herbicidal efficacy, Monochoria vaginalis” value in [10] (1g a.i./10a) and in data set [10] (5g a.i./10a) was 10 (10: 100%) each time. Also, the “herbicidal efficacy, Scirpus juncoides” value in data set [11] (1g a.i./10a) and in data set [11] (5g a.i./10a) was 9 (9: 90% to less than 100%) throughout. Moreover, the “phytotoxicity, Oryza sativa” value was 0 (0 (exponent): 0% to less than 10% (growth inhibition rate)) in data set [12] (1g a.i./10a) and 1 (1: 10% to less than 20%) in data set [12] (5g a.i./10a).
